Reference: patent publication US20260001928A1 (CORTERIA PHARMACEUTICALS, priority 2022, published 2026)
pEC50: −log10 of the molar value. *1 amine or outer side, *2 acyl side, *3 side chain or, on linkers, in order; H or OH if unused. Where a SMILES comes first, the peptide text is derived from it. Side-chain parts run from the residue outwards. [ ]: non-standard residue; d: D form. The star is where a group is joined. C18 diacid = O=C(O)CCCCCCCCCCCCCCCCC(=O)*; C16 diacid = O=C(O)CCCCCCCCCCCCCCC(=O)*; γGlu = O=C(O)[C@H](CCC(=O)[*:2])N[*:1]; Pentanoyl = CCCCC(=O)*; AEEA = NCCOCCOCC(=O)O; Ac3c = NC1(C(=O)O)CC1; Aib = CC(C)(N)C(=O)O

Experiments:
[1] = In vitro subcutaneous tissue supernatant (SCts) stability and metabolite identification, rat; assay type: in vitro ADME; design: remaining at 2 h: dose or concentration left out as unconfirmed; conditions: for remaining at 2 h: male, Sprague Dawley, rat subcutaneous tissue supernatant (SCts), 37° C
Description: In vitro metabolic stability in subcutaneous tissue supernatant (SCts) was studied in male Sprague Dawley rats. Test compounds were incubated […] for 2 hours at 37° C.
Software aided in vitro metabolite identification on SCts stability samples was performed using either Metabolite Pilot (Sciex) or Biopharma Finder (Thermo). In addition, metabolite identification using Metabolite Pilot was performed on plasma samples of Comp Y following SC administration to rat at 1 mg/kg.

CFR1R receptor = biological target: T1, CFR1R receptor (Homo sapiens, UniProt P34998); test: Activity at anti-target CFR1R receptor, cAMP assay in CRF1R-overexpression CHO-K1 cells; assay type: cell-based; conditions: 100% = Sauvagine at 100 nM; for pEC50: cAMP
T1 construct: host or cells: CHO-K1 (clone 2)
T1 sequence (P34998 24-415): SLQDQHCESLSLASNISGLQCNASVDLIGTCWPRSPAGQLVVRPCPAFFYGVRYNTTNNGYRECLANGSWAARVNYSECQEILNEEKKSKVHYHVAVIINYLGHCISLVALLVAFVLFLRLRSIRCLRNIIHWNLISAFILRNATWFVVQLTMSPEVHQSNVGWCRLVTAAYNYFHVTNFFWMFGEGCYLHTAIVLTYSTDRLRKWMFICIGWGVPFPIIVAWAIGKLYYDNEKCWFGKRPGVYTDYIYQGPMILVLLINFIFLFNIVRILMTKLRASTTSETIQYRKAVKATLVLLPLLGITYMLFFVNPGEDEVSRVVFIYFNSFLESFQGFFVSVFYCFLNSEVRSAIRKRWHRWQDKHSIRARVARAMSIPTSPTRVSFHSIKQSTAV
Summary of the method: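 Grow clone 2 to near confluence at 37° C. under 5% CO2 in F12 (Hams) with 10% FBS and G418, harvest, and freeze in 10% DMSO. Thaw and plate at 4000 cells/well. Then proceed per the TeloHAEC method, normalising to Sauvagine 100 nM as maximum.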

human CRF2a receptor = biological target: T2, human CRF2a receptor (Homo sapiens, UniProt Q13324); test: Activity at human CRF2a receptor, cAMP functional assay in TeloHEAC cells; assay type: cell-based; conditions: TeloHEAC cells stably expressing human CRF2a receptor, relative to urocortin 2 (100 nM = 100%)
T2 construct: expressed in transfected cells; host or cells: TeloHEAC cells
T2 sequence (Q13324 1-411): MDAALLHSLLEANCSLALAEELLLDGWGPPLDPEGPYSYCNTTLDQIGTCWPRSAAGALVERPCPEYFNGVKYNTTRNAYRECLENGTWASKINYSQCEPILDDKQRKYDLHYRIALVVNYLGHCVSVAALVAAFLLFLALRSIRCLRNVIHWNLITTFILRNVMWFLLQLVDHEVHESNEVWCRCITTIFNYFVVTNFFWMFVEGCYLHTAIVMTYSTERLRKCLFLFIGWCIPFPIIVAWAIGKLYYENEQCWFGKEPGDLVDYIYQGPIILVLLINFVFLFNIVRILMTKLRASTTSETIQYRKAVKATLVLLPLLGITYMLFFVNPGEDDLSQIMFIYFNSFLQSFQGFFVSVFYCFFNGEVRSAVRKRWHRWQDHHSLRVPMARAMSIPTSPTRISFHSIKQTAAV
Summary of the method: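 TeloHEAC cells stably expressing human CRF2a (10000 cells/well, suspended in HBSS/20 mM HEPES with 2 mM IBMX) were exposed to compounds for 30 min at 37 °C. cAMP was read as the 665/620 nm fluorescence ratio after 1 h at room temperature. EC50 was derived relative to 100 nM urocortin 2, set as 100%.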

[2] = Chemical stability in buffer (pH 7.4 / pH 4.5), % purity loss; assay type: physicochemical; conditions: 40° C. vs 5° C., 14 or 28 days; for Buffer stability pH 7.4 % purity loss: 100 mM phosphate buffer pH 7.4
Summary of the method: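 LC-UV gave % loss after 14 or 28 days of storage at 5 °C or 40 °C. Samples were diluted supernatants from compound incubated 1 h at room temperature at 10 mg/mL target, in 100 mM acetate pH 4.5 or 100 mM phosphate pH 7.4.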

major metabolic soft spot, in vitro ([1]; in vitro soft spot identification, rat SCts)	remaining at 2 h [1] [%]	Emax (% I) (CFR1R receptor)	pEC50 (CFR1R receptor)	pEC50 (human CRF2a receptor)	Buffer stability pH 4.5 % purity loss ([2]; 100 mM acetate buffer pH 4.5) [%]	Buffer stability pH 7.4 % purity loss [2]	Compound
N-terminus	–	–	–	–	–	–	CC[C@H](C)[C@H](N)C(=O)N[C@H](C(=O)N[C@@H](CC(C)C)C(=O)N[C@@H](CO)C(=O)N[C@@H](CC(C)C)C(=O)N[C@@H](CC(=O)O)C(=O)N[C@@H](C(=O)N1CCC[C@H]1C(=O)N[C@H](C(=O)N[C@@H](CCCCN)C(=O)N[C@@H](CC(C)C)C(=O)N[C@@H](CCCCNC(=O)CC[C@H](NC(=O)CCCCCCCCCCCCCCC(=O)O)C(=O)O)C(=O)N[C@@H](CCC(N)=O)C(=O)N[C@H](C(=O)N[C@@H](CC(C)C)C(=O)N[C@@H](CC(C)C)C(=O)N[C@@H](CCCCN)C(=O)N[C@@H](CCC(N)=O)C(=O)N[C@@H](CCC(=O)O)C(=O)N[C@@H](CCCNC(=N)N)C(=O)N[C@@H](CCC(N)=O)C(=O)N[C@@H](CCCCN)C(=O)N[C@@H](CCCCN)C(=O)N[C@@H](CCC(N)=O)C(=O)N[C@@H](CCCNC(=N)N)C(=O)N[C@@H](CCC(=O)O)C(=O)N[C@@H](CCC(N)=O)C(=O)N[C@@H](C)C(=O)N[C@@H](CCC(=O)O)C(=O)N[C@@H](CCCCN)C(=O)N[C@@H](CC(N)=O)C(=O)N[C@@H](CCCCN)C(=O)N[C@@H](CCC(N)=O)C(=O)N[C@H](C(=O)N[C@@H](CC(C)C)C(=O)N[C@@H](CCC(=O)O)C(=O)N[C@@H](CCC(N)=O)C(=O)N[C@H](C(N)=O)C(C)C)[C@@H](C)CC)[C@@H](C)CC)[C@@H](C)CC)C(C)C)C(C)C [SEQ ID No. 151, reference compound] (H-IVLSLD[dV]PIKLK([γGlu-C16 diacid])QILLKQERQKKQREQAEKNKQILEQV-NH2)
–	77	6	< 6.60	8.24	–	–	CCCCC(=O)N[C@H](C(=O)N[C@@H](CC(C)C)C(=O)N[C@@H](CO)C(=O)N[C@@H](CC(C)C)C(=O)N[C@@H](CC(=O)O)C(=O)N[C@@H](C(=O)N1CCC[C@H]1C(=O)N[C@H](C(=O)N[C@@H](CCCCN)C(=O)N[C@@H](CC(C)C)C(=O)N[C@@H](CCCCNC(=O)COCCOCCNC(=O)COCCOCCNC(=O)CC[C@H](NC(=O)CCCCCCCCCCCCCCCCC(=O)O)C(=O)O)C(=O)N[C@@H](CCCCN)C(=O)N[C@H](C(=O)N[C@@H](CC(C)C)C(=O)N[C@@H](CC(C)C)C(=O)N[C@@H](CCC(=O)O)C(=O)N[C@@H](CCC(N)=O)C(=O)N[C@@H](CCC(=O)O)C(=O)N[C@@H](CCCCN)C(=O)N[C@@H](CCC(N)=O)C(=O)N[C@@H](CCCCN)C(=O)N[C@@H](CCCCN)C(=O)N[C@@H](CCC(N)=O)C(=O)N[C@@H](CCCNC(=N)N)C(=O)N[C@@H](CCC(=O)O)C(=O)N[C@@H](CCC(N)=O)C(=O)N[C@@H](C)C(=O)N[C@@H](CCC(=O)O)C(=O)N[C@H](C(=O)N[C@@H](CC(N)=O)C(=O)N[C@H](C(=O)N[C@@H](CCC(N)=O)C(=O)N[C@H](C(=O)N[C@@H](CC(C)C)C(=O)N[C@@H](C)C(=O)N[C@@H](CCC(N)=O)C(=O)N[C@H](C(N)=O)C(C)C)[C@@H](C)CC)C(C)C)[C@@H](C)O)[C@@H](C)CC)[C@@H](C)CC)C(C)C)C(C)C [compound 121] (Pentanoyl-VLSLD[dV]PIKLK([AEEA-AEEA-γGlu-C18 diacid])KILLEQEKQKKQREQAETNVQILAQV-NH2)
–	78	5	< 6.60	9.80	0.0	24.3%	CC[C@H](C)[C@H](NC(C)=O)C(=O)N[C@H](C(=O)N[C@@H](CC(C)C)C(=O)N[C@@H](CO)C(=O)N[C@@H](CC(C)C)C(=O)N[C@@H](CC(=O)O)C(=O)N[C@@H](C(=O)N1CCC[C@H]1C(=O)N[C@H](C(=O)N[C@@H](CCCCN)C(=O)N[C@@H](CC(C)C)C(=O)N[C@@H](CCCCNC(=O)CC[C@H](NC(=O)CCCCCCCCCCCCCCCCC(=O)O)C(=O)O)C(=O)N[C@@H](CCCCN)C(=O)N[C@H](C(=O)N[C@@H](CC(C)C)C(=O)N[C@@H](CC(C)C)C(=O)N[C@@H](CCC(=O)O)C(=O)N[C@@H](CCC(N)=O)C(=O)N[C@@H](CCC(=O)O)C(=O)N[C@@H](CCCCN)C(=O)N[C@@H](CCC(N)=O)C(=O)N[C@@H](CCCCN)C(=O)N[C@@H](CCCCN)C(=O)N[C@@H](CCC(N)=O)C(=O)N[C@@H](CCCNC(=N)N)C(=O)N[C@@H](CCC(=O)O)C(=O)N[C@@H](CCC(N)=O)C(=O)N[C@@H](C)C(=O)N[C@@H](CCC(=O)O)C(=O)N[C@H](C(=O)N[C@@H](CC(N)=O)C(=O)NC1(C(=O)N[C@@H](CCC(N)=O)C(=O)N[C@H](C(=O)N[C@@H](CC(C)C)C(=O)N[C@@H](C)C(=O)N[C@@H](CCC(N)=O)C(=O)N[C@H](C(N)=O)C(C)C)[C@@H](C)CC)CC1)[C@@H](C)O)[C@@H](C)CC)[C@@H](C)CC)C(C)C)C(C)C [compound 136] (Ac-IVLSLD[dV]PIKLK([γGlu-C18 diacid])KILLEQEKQKKQREQAETN[Ac3c]QILAQV-NH2)
–	59	3	< 6.60	9.49	–	0.6/Not Tested %	CC[C@H](C)[C@H](NC(C)=O)C(=O)N[C@H](C(=O)N[C@@H](CC(C)C)C(=O)N[C@@H](CO)C(=O)N[C@@H](CC(C)C)C(=O)N[C@@H](CC(=O)O)C(=O)N[C@@H](C(=O)N1CCC[C@H]1C(=O)N[C@H](C(=O)N[C@@H](CCCCN)C(=O)N[C@@H](CC(C)C)C(=O)N[C@@H](CCCCNC(=O)CC[C@H](NC(=O)CCCCCCCCCCCCCCC(=O)O)C(=O)O)C(=O)N[C@@H](CCCCN)C(=O)N[C@H](C(=O)N[C@@H](CC(C)C)C(=O)N[C@@H](CC(C)C)C(=O)N[C@@H](CCC(=O)O)C(=O)N[C@@H](CCC(N)=O)C(=O)N[C@@H](CCC(=O)O)C(=O)N[C@@H](CCCCN)C(=O)N[C@@H](CCC(N)=O)C(=O)N[C@@H](CCCCN)C(=O)N[C@@H](C)C(=O)N[C@@H](CCC(N)=O)C(=O)N[C@@H](CCCNC(=N)N)C(=O)N[C@@H](CCC(=O)O)C(=O)N[C@@H](CCC(N)=O)C(=O)N[C@@H](C)C(=O)N[C@@H](CCC(=O)O)C(=O)N[C@H](C(=O)N[C@@H](CC(N)=O)C(=O)NC(C)(C)C(=O)N[C@@H](CCC(N)=O)C(=O)N[C@H](C(=O)N[C@@H](CC(C)C)C(=O)N[C@@H](C)C(=O)N[C@@H](CCC(N)=O)C(=O)N[C@H](C(N)=O)C(C)C)[C@@H](C)CC)[C@@H](C)O)[C@@H](C)CC)[C@@H](C)CC)C(C)C)C(C)C [compound 161] (Ac-IVLSLD[dV]PIKLK([γGlu-C16 diacid])KILLEQEKQKAQREQAETN[Aib]QILAQV-NH2)
